#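 Five compound concentrations were applied to cells in 96-well plates for 48 hours; endpoints were derived by simple linear interpolation of the resulting dose-response curve. Here, GI50 denotes the concentration required for 50% inhibition of growth. TGI is the concentration that stops growth completely.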
# Assays:
# Test in all cases: NCI anticancer screen, dose series, 48 h
# 786-0 renal = system: 786-0 renal
# A498 renal = system: A498 renal
# A549 NSCLC = system: A549 NSCLC
# ACHN renal = system: ACHN renal
# BT-549 breast = system: BT-549 breast
# CAKI-1 renal = system: CAKI-1 renal
# CCRF-CEM leukemia = system: CCRF-CEM leukemia
# COLO 205 colon = system: COLO 205 colon
# DU-145 prostate = system: DU-145 prostate
# EKVX NSCLC = system: EKVX NSCLC
# HCC-2998 colon = system: HCC-2998 colon
# HCT-116 colon = system: HCT-116 colon
# HCT-15 colon = system: HCT-15 colon
# HL-60(TB) leukemia = system: HL-60(TB) leukemia
# HOP-62 NSCLC = system: HOP-62 NSCLC
# HOP-92 NSCLC = system: HOP-92 NSCLC
# HS 578T breast = system: HS 578T breast
# HT29 colon = system: HT29 colon
# IGROV1 ovarian = system: IGROV1 ovarian
# K-562 leukemia = system: K-562 leukemia
# KM12 colon = system: KM12 colon
# LOX IMVI melanoma = system: LOX IMVI melanoma
# MALME-3M melanoma = system: MALME-3M melanoma
# MCF7 breast = system: MCF7 breast
# MDA-MB-231 breast = system: MDA-MB-231 breast
# MDA-MB-435 = system: MDA-MB-435
# MOLT-4 leukemia = system: MOLT-4 leukemia
# NCI-H226 lung = system: NCI-H226 lung
# NCI-H23 lung = system: NCI-H23 lung
# NCI-H460 lung = system: NCI-H460 lung
# NCI-H522 lung = system: NCI-H522 lung
# NCI/ADR-RES ovarian = system: NCI/ADR-RES ovarian
# OVCAR-3 ovarian = system: OVCAR-3 ovarian
# OVCAR-4 ovarian = system: OVCAR-4 ovarian
# OVCAR-5 ovarian = system: OVCAR-5 ovarian
# OVCAR-8 ovarian = system: OVCAR-8 ovarian
# PC-3 prostate = system: PC-3 prostate
# RPMI-8226 leukemia = system: RPMI-8226 leukemia
# RXF 393 renal = system: RXF 393 renal
# SF-268 CNS = system: SF-268 CNS
# SF-295 CNS = system: SF-295 CNS
# SF-539 CNS = system: SF-539 CNS
# SK-MEL-2 melanoma = system: SK-MEL-2 melanoma
# SK-MEL-28 melanoma = system: SK-MEL-28 melanoma
# SK-MEL-5 melanoma = system: SK-MEL-5 melanoma
# SK-OV-3 ovarian = system: SK-OV-3 ovarian
# SN12C renal = system: SN12C renal
# SNB-19 CNS = system: SNB-19 CNS
# SNB-75 CNS = system: SNB-75 CNS
# SR leukemia = system: SR leukemia
# SW-620 colon = system: SW-620 colon
# T-47D breast = system: T-47D breast
# TK-10 renal = system: TK-10 renal
# U251 CNS = system: U251 CNS
# UACC-257 melanoma = system: UACC-257 melanoma
# UACC-62 melanoma = system: UACC-62 melanoma
# UO-31 renal = system: UO-31 renal
smiles,measurement,setting,value
Cc1ccc(C(=O)Nc2ccc(CNCCN3CCOCC3)c(C(F)(F)F)c2)cc1C#Cc1cnc2cccnn12,GI50,786-0 renal,1.21 µM
same,TGI,786-0 renal,3.29 µM
same,GI50,A498 renal,1.94 µM
same,TGI,A498 renal,4.28 µM
same,GI50,A549 NSCLC,2.54 µM
same,TGI,A549 NSCLC,10.6 µM
same,GI50,ACHN renal,2.82 µM
same,TGI,ACHN renal,9.55 µM
same,GI50,BT-549 breast,2.27 µM
same,TGI,BT-549 breast,4.56 µM
same,GI50,CAKI-1 renal,2.9 µM
same,TGI,CAKI-1 renal,7.23 µM
same,GI50,CCRF-CEM leukemia,1.55 µM
same,TGI,CCRF-CEM leukemia,8.23 µM
same,GI50,COLO 205 colon,1.23 µM
same,TGI,COLO 205 colon,3.82 µM
same,GI50,DU-145 prostate,2.92 µM
same,TGI,DU-145 prostate,8.19 µM
same,GI50,EKVX NSCLC,3.12 µM
same,TGI,EKVX NSCLC,10.7 µM
same,GI50,HCC-2998 colon,1.55 µM
same,TGI,HCC-2998 colon,3.24 µM
same,GI50,HCT-116 colon,0.5 µM
same,TGI,HCT-116 colon,2.43 µM
same,GI50,HCT-15 colon,0.925 µM
same,TGI,HCT-15 colon,4.9 µM
same,GI50,HL-60(TB) leukemia,0.145 µM
same,TGI,HL-60(TB) leukemia,2.6 µM
same,GI50,HOP-62 NSCLC,2.16 µM
same,TGI,HOP-62 NSCLC,6.55 µM
same,GI50,HOP-92 NSCLC,0.761 µM
same,TGI,HOP-92 NSCLC,3.12 µM
same,GI50,HS 578T breast,1.81 µM
same,TGI,HS 578T breast,5.24 µM
same,GI50,HT29 colon,0.794 µM
same,TGI,HT29 colon,5.99 µM
same,GI50,IGROV1 ovarian,1.27 µM
same,TGI,IGROV1 ovarian,3.43 µM
same,TGI,K-562 leukemia,11.6 µM
same,GI50,KM12 colon,0.393 µM
same,TGI,KM12 colon,2.68 µM
same,GI50,LOX IMVI melanoma,0.515 µM
same,TGI,LOX IMVI melanoma,1.87 µM
same,GI50,MALME-3M melanoma,0.229 µM
same,TGI,MALME-3M melanoma,1.87 µM
same,GI50,MCF7 breast,1.42 µM
same,TGI,MCF7 breast,3.2 µM
same,GI50,MDA-MB-231 breast,1.15 µM
same,TGI,MDA-MB-231 breast,3.19 µM
same,GI50,MDA-MB-435,0.746 µM
same,TGI,MDA-MB-435,2.32 µM
same,GI50,MOLT-4 leukemia,1.31 µM
same,TGI,MOLT-4 leukemia,5.37 µM
same,GI50,NCI-H226 lung,1.66 µM
same,TGI,NCI-H226 lung,7.59 µM
same,GI50,NCI-H23 lung,0.89 µM
same,TGI,NCI-H23 lung,3.03 µM
same,GI50,NCI-H460 lung,1.76 µM
same,TGI,NCI-H460 lung,3.9 µM
same,GI50,NCI-H522 lung,1.99 µM
same,TGI,NCI-H522 lung,5.22 µM
same,GI50,NCI/ADR-RES ovarian,2.17 µM
same,TGI,NCI/ADR-RES ovarian,7.47 µM
same,GI50,OVCAR-3 ovarian,2.39 µM
same,TGI,OVCAR-3 ovarian,6.24 µM
same,GI50,OVCAR-4 ovarian,2.52 µM
same,TGI,OVCAR-4 ovarian,14.5 µM
same,GI50,OVCAR-5 ovarian,1.85 µM
same,TGI,OVCAR-5 ovarian,8.17 µM
same,GI50,OVCAR-8 ovarian,3.09 µM
same,TGI,OVCAR-8 ovarian,10.8 µM
same,GI50,PC-3 prostate,2.07 µM
same,TGI,PC-3 prostate,6.17 µM
same,GI50,RPMI-8226 leukemia,1.42 µM
same,TGI,RPMI-8226 leukemia,3.83 µM
same,GI50,RXF 393 renal,1.63 µM
same,TGI,RXF 393 renal,3.21 µM
same,GI50,SF-268 CNS,2.46 µM
same,TGI,SF-268 CNS,7.04 µM
same,GI50,SF-295 CNS,1.62 µM
same,TGI,SF-295 CNS,3.57 µM
same,GI50,SF-539 CNS,1.32 µM
same,TGI,SF-539 CNS,2.67 µM
same,GI50,SK-MEL-2 melanoma,1.27 µM
same,TGI,SK-MEL-2 melanoma,3.44 µM
same,GI50,SK-MEL-28 melanoma,1.22 µM
same,TGI,SK-MEL-28 melanoma,2.74 µM
same,GI50,SK-MEL-5 melanoma,1.45 µM
same,TGI,SK-MEL-5 melanoma,2.81 µM
same,GI50,SK-OV-3 ovarian,3.91 µM
same,TGI,SK-OV-3 ovarian,13.6 µM
same,GI50,SN12C renal,1.75 µM
same,TGI,SN12C renal,5.68 µM
same,GI50,SNB-19 CNS,3.11 µM
same,TGI,SNB-19 CNS,9.73 µM
same,GI50,SNB-75 CNS,0.0644 µM
same,TGI,SNB-75 CNS,0.778 µM
same,GI50,SR leukemia,1.4 µM
same,TGI,SR leukemia,6.64 µM
same,GI50,SW-620 colon,1.66 µM
same,TGI,SW-620 colon,10.5 µM
same,GI50,T-47D breast,2.37 µM
same,TGI,T-47D breast,6.73 µM
same,GI50,TK-10 renal,2.61 µM
same,TGI,TK-10 renal,7.51 µM
same,GI50,U251 CNS,1.84 µM
same,TGI,U251 CNS,4.65 µM
same,GI50,UACC-257 melanoma,1.69 µM
same,TGI,UACC-257 melanoma,3.57 µM
same,GI50,UACC-62 melanoma,1.45 µM
same,TGI,UACC-62 melanoma,3.43 µM
same,GI50,UO-31 renal,1.45 µM
same,TGI,UO-31 renal,3.47 µM

# Reference: PubChem BioAssay (NCI)
